This is an account of results in US11918662B2, “Heterocyclic compounds and imaging agents for imaging huntingtin protein” (CHDI Foundation, Inc., priority 2020, dated 2024).

For the first assay, the target named is T1, MBP-HTT(1-89)Q46-His(6×) (“Exon1-Q46”) protein aggregates (Homo sapiens, UniProt P42858, INS38QQQQQQQQQQQQQQQQQQQQQQQQQ).
T1 construct: MBP-HTT(1-89)Q46-His(6×); His(6×) (C); made in house
T1 sequence (P42858 with tags, fused parts or gaps with the stated changes limits assumed): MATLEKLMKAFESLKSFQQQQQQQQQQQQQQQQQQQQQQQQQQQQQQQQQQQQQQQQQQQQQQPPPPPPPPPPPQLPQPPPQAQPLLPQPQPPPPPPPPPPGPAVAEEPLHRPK
Kind of assay: Exon1-Q46 Radioligand Binding Assay.
Settings: not given
Broadly, the IC50 is the concentration that inhibits the measured activity by half. Consider `CCC[CH2][Sn]([CH2]CCC)([CH2]CCC)[c]1ccc(NC(=O)CCn2c(=O)c3cnn(C)c3c3ccc(F)cc32)c(F)c1` [Example 24-1, 3-{7-Fluoro-1-methyl-4-oxo-1H,4H,5H-pyrazolo[4,3-c]quinolin-5-yl}-N-[2-fluoro-4-(tributylstannyl)phenyl]propanamide], for which the IC50 is less than 100 nM.

With `Cn1ncc2c(=O)n(CCC(=O)Nc3ccc(F)cc3F)c3c[c]([Sn]([CH3])([CH3])[CH3])ccc3c21` [Example 26-1, N-(2,4-difluorophenyl)-3-[1-methyl-4-oxo-7-(trimethylstannyl)-1H,4H,5H-pyrazolo [4,3-c]quinolin-5-yl]propanamide], the IC50 is less than 100 nM.

Staying with this assay, now noted: displacement of 0.3 nM [3H3-methyl]-5-((5-methoxypyridin-2-yl)methoxy)-2-(pyrazin-2-yl)benzo[d]oxazole from 1 μM aggregated Exon1-Q46, 60 minutes at 37° C.; read-out: Potency Range (IC50).
Turning to `COc1ccc(OCCCn2c(=O)c3cccn3c3ccc(F)cc32)nc1` [Example 11-1, 7-Fluoro-5-{3-[(5-methoxypyridin-2-yl)oxy]propyl}-4H,5H-pyrrolo[1,2-a]quinoxalin-4-one], the IC50 is less than 100 nM.

With `Cc1ccc(C(=O)NCCn2c(=O)c3cccn3c3ccc(F)cc32)cc1` [Example 12-1, N-[2-(7-Fluoro-4-oxo-pyrrolo[1,2-a]quinoxalin-5-yl)ethyl]-4-methyl-benzamide], the 50% inhibitory concentration (IC50) is less than 100 nM.

As to `Cc1ccc(C(=O)NCCCn2c(=O)c3cccn3c3ccc(F)cc32)cc1` [Example 12-2], the 50% inhibitory concentration (IC50) was less than 100 nM.

As to `O=c1c2cccn2c2ccc(F)cc2n1CCN1CCc2ccccc2C1` [Example 13-1, 7-Fluoro-5-[2-(1,2,3,4-tetrahydroisoquinolin-2-yl)ethyl]-4H,5H-pyrrolo[1,2-a]quinoxalin-4-one], the half-inhibitory concentration (IC50) is less than 100 nM.

As to `O=c1c2cccn2c2ccc(F)cc2n1CCCN1CCc2ccccc2C1` [Example 13-2], the concentration for half-maximal inhibition (IC50) was less than 100 nM.

As to `COc1ccc(C(=O)NCCn2c(=O)c3cccn3c3ccccc32)nc1` [Example 14-1, 5-Methoxy-N-(2-{4-oxo-4H,5H-pyrrolo[1,2-a]quinoxalin-5-yl}ethyl)pyridine-2-carboxamide], the concentration for half-maximal inhibition (IC50) was less than 100 nM.

For `COc1ccc(C(=O)NCCn2c(=O)c3cccn3c3ccc(F)cc32)nc1` [Example 14-2], the half-inhibitory concentration (IC50) was less than 100 nM.

As to `Cn1nc(C(=O)NCCn2c(=O)c3cccn3c3ccc(F)cc32)ccc1=O` [Example 15-1], the IC50 is less than 100 nM.

Turning to `Cn1ncc2c(=O)n(CCNC(=O)c3ccc(F)cc3F)c3cc(F)ccc3c21` [Example 16-1], the IC50 was less than 100 nM.

As for `Cn1ncc2c(=O)n(CCNC(=O)c3ccccc3F)c3cc(F)ccc3c21` [Example 16-2], the concentration for half-maximal inhibition (IC50) is less than 100 nM.

`COc1ccc(CCCn2c(=O)c3cccn3c3ccc(F)cc32)cn1` [Example 18-1, 7-Fluoro-5-[3-(6-methoxy-3-pyridyl)propyl]pyrrolo[1,2-a]quinoxalin-4-one]: the IC50 is less than 100 nM.

In the case of `O=C(CCn1c(=O)c2cn[nH]c2c2ccc(F)cc21)Nc1ccc(F)cc1F` [Example 19-1, N-(2,4-Difluorophenyl)-3-(7-fluoro-4-oxo-1H-pyrazolo[4,3-c]quinolin-5-yl)propanamide], the IC50 was less than 100 nM.

For `[2H]C([2H])([2H])n1ncc2c(=O)n(CCC(=O)Nc3ccc(F)cc3F)c3cc(F)ccc3c21` [Example 19-3], the 50% inhibitory concentration (IC50) is less than 100 nM.

`[2H]C([2H])([2H])n1cc2c(=O)n(CCC(=O)Nc3ccc(F)cc3F)c3cc(F)ccc3c2n1` [Example 19-4]: the IC50 is less than 100 nM.

As for `[2H]C(C(=O)Nc1ccc(F)cc1F)C([2H])([2H])n1c(=O)c2cnn(C)c2c2ccc(F)cc21` (centres unmarked) [Example 20-1], the IC50 was less than 100 nM.

Take `Cn1ncc2c(=O)n(CCC(=O)Nc3ccc(F)cc3F)c3cc(F)c(F)cc3c21` [Example 21-1]: the half-inhibitory concentration (IC50) is less than 100 nM.

Take `Cn1ncc2c(=O)n(CCC(=O)Nc3ccc(F)cc3F)c3ccc(F)cc3c21` [Example 21-2]: the IC50 was less than 100 nM.

For the compound `Cn1ncc2c(=O)n(CCC(=O)Nc3ccc(F)cc3F)c3cccc(F)c3c21` [Example 21-3], the IC50 is less than 100 nM.

As to `Cn1ccc2c3ccc(F)cc3n(CCC(=O)Nc3ccc(F)cc3F)c(=O)c21` [Example 22-1, N-(2,4-Difluorophenyl)-3-{7-fluoro-3-methyl-4-oxo-3H,4H,5H-pyrrolo[2,3-c]quinolin-5-yl}propanamide], the half-inhibitory concentration (IC50) is less than 100 nM.

Turning to `O=C(CCCn1c(=O)c2cccn2c2ccc(F)cc21)N1CCOCC1` [Example 29-1], the IC50 is less than 100 nM.

With `CC1CC(C)CN(C(=O)CCCn2c(=O)c3cccn3c3ccccc32)C1` (centres unmarked) [Example 29-2], the IC50 is less than 100 nM.

As to `O=C(Cn1c(=O)c2cccn2c2ccc(F)cc21)N1CCCCC1` [Example 29-3], the IC50 is less than 100 nM.

Turning to `Cc1ccc(NC(=O)CCn2c(=O)c3cccn3c3ccccc32)cc1` [Example 29-4], the IC50 was less than 100 nM.

Take `O=C(CCCn1c(=O)c2cccn2c2ccc(Br)cc21)N1CCCCC1` [Example 29-5]: the 50% inhibitory concentration (IC50) is less than 100 nM.
